Ends that are not written are not given here.
How the values were obtained:
WDR5 = target: T1, WDR5 (Homo sapiens, UniProt P61964); test: Binding of N-acetylated three residue peptide (method not given); conditions: acetylated on the N-terminus
T1 construct: pMCGS7 plasmids encoding full-length WDR5 as N-terminal His6 fusions were obtained; His6 (N); made in house; host or cells: Escherichia coli (Rosetta II, Novagen)

[1] = system: mouse embryonic carcinoma cell nuclei; test: Fluorescence localization and nuclear phenotype in mouse embryonic carcinoma cells; format: cell-based
[2] = system: MLL1-dependent Hox genes (e.g. Hoxc8 and Hoxa9); test: Expression of MLL1-dependent Hox genes in HEK293T cells; format: cell-based; conditions: 20 micrograms per milliliter, 24 hours
From the text: In another embodiment, an inhibitor peptide with a cell penetration sequence is used to treat MLL1-associated leukemia. […] The addition of the inhibitor peptides disclosed herein can help control the degree of upregulation and thereby serve as a treatment for leukemia. Experiments have shown the degree of expression of MLL1-dependent Hox genes (e.g. Hoxc8 and Hoxa9) are decreased in the presence of inhibitor peptide SEQ ID NO. 34 in HEK293T cells treated with 20 micrograms per milliliter of the inhibitor peptide for 24 hours.

[3] = system: H3K4 trimethylation / H3K27 trimethylation of H3; test: Western blot of H3K4 trimethylation to H3K27 trimethylation ratio in HEK293T cells; format: cell-based; conditions: 20 micrograms per milliliter, 24 hours, normalized to total histone H3
Experimental: HEK293T cells were treated with 20 micrograms per milliliter of the inhibitor peptide (SEQ ID NO. 34) for 24 hours and immune-blotted using antibodies specific for H3K4 trimethylation, H3K27 trimethylation, and histone H3 (to provide for normalization). Western blots were quantified based on band intensity using image analysis software and normalized as a function of total histone H3. Tubulin was used as a loading control and its level remained constant between the two samples.

Row | binding of three residue peptide (WDR5) | Substance | localization of fluorescent signature ([1]; mouse embryonic carcinoma cells) | effect on metaphase cells and nuclear shape ([1]; within 48 hours of treatment) | degree of expression of MLL1-dependent Hox genes (Hoxc8 and Hoxa9) [2] | ratio of H3K4 trimethylation to H3K27 trimethylation [3]
1 | capable of binding | acART (Ac-Ala-Arg-Thr) [three residue peptide (ARX2)] | – | – | – | –
2 | – | Ac-VNPTGCARSEPK-Ahx-K(FTIC)-GRKKRRQRRRAP-CONH2 [SEQ ID NO. 34] | rapidly localized to eurchromatic regions of mouse embryonic carcinoma cell nuclei | metaphase cells are absent and many cell nuclei have adopted altered shapes | decreased | lowering of the ratio of H3K4 to H3K27

From patent publication US8715678B2, “Method for inhibiting the formation of SET1 family core complexes” (Syracuse University, priority 2008, dated 2014)
